In US20040029777A1, “Pharmaceutical preparation for taste masking” (TAISHO PHARMACEUTICAL CO., LTD., priority 2002, published 2004):

Experiments:
[1] = Thermographic analysis (TGA), change in weight at set temperature; assay type: physicochemical
Experimental: Samples weighing approximately 10 mg were placed in a platinum pan and the change in weight at a set temperature (100° C., 150° C.) was measured using Perkin-Elmer Thermal Analysis Equipment.

[2] = In vitro dissolution test, USP apparatus 2 (paddle); assay type: physicochemical; conditions: distilled water (FIG. 16)
Experimental: Complexes that corresponded to 150 mg of ibuprofen were subjected to dissolution in a USP (United States Pharmacopoeia) dissolution apparatus 2 (Paddle-type) with several kinds of solutions (900 ml). This dissolution test was conducted at 37° C., and a paddle rotation speed of 50 rpm was maintained. A UV detector was used to measure the absorbance of dissolution liquids at regular intervals of up to 120 minutes.
The complexes containing 150 mg of ibuprofen were subjected to dissolution testing using a USP dissolution apparatus 2 (Paddle-type) with several kinds of solutions (900 ml). This dissolution test was conducted at 37° C., at a paddle rotation speed of 50 rpm. A UV detector was used to measure the absorbance of dissolution liquids at regular intervals up to 120 minutes.

With `CC(C)Cc1ccc(C(C)C(=O)O)cc1` (stereo not drawn) [ibuprofen, Ibuprofen] the “TGA change in weight (sublimation)” value ([1]; 100° C.) was “showed sublimation”, the “TGA change in weight (sublimation)” value ([1]; 150° C.) was “showed sublimation” and the dissolution profile saturation [2] was ~40%.
